Test results: patent US8889876B2, “Histone deacetylase inhibitors and uses thereof” (Jiangsu Hengyi Pharmaceutical Co., Ltd., priority 2008, dated 2014)

Columns and labels:
[1] = test system: Colo320 human rectal cancer cells; experiment: CCK-8 proliferation inhibition, Colo320; type: cell-based; settings: CCK-8 method; for inhibition at 10 µM / inhibition at 100 µM: Homo sapiens, COLO 320
Protocol: (§1) Detecting the inhibition rate of the compound concentrations of 100 μM and 10 μM to Hut78 T-cell Leukemia cell, Jurkat E6-1 human T-cell lymphoma, PANC-1 human pancreatic cancer cells, A549 human lung cancer cells, K562 human chronic myeloid leukemia cells, Hep3B2.1-7 human liver cancer cells, MDA-MB-435s human breast cancer cells, Colo320 human rectal cancer cells and PC-3 human prostate cancer using CCK-8 method.

[2] = test system: MDA-MB-435s human breast cancer cells; experiment: CCK-8 proliferation inhibition, MDA-MB-435s; type: cell-based; settings: CCK-8 method; for inhibition at 10 µM / inhibition at 100 µM: Homo sapiens, MDA-MB-435S
Protocol: as §1

[3] = test system: K562 human chronic myeloid leukemia cells; experiment: CCK-8 proliferation inhibition, K562; type: cell-based; settings: for inhibition at 10 µM / inhibition at 100 µM: Homo sapiens; for inhibition at 10 µM: K562, 10 μM; for inhibition at 100 µM: K562, 100 μM
Protocol: as §1

[4] = test system: Hep3B2.1-7 human liver cancer cells; experiment: CCK-8 proliferation inhibition, Hep3B2.1-7; type: cell-based; settings: CCK-8 method; for inhibition at 10 µM / inhibition at 100 µM: Homo sapiens, Hep3B
Protocol: as §1

[5] = test system: histone deacetylase; experiment: in vitro inhibition of histone deacetylase by HDAC inhibitor screening kit (Biovision K340-100); type: biochemical
Protocol: An assay for determining the in vitro inhibition activity of the compound on histone deacetylase is conducted according to the specification of HDAC inhibitor screeing kid (Biovision Company/Catalog #K340-100). […]

[6] = test system: PANC-1 human pancreatic cancer cells; experiment: CCK-8 proliferation inhibition, PANC-1; type: cell-based; settings: for inhibition at 10 µM / inhibition at 100 µM: Homo sapiens; for inhibition at 10 µM: PANC-1, 10 μM; for inhibition at 100 µM: PANC-1, 100 μM
Protocol: as §1

[7] = test system: Jurkat E6-1 human T-cell lymphoma; experiment: CCK-8 proliferation inhibition, Jurkat E6-1; type: cell-based; settings: for inhibition at 10 µM / inhibition at 100 µM: Homo sapiens; for inhibition at 10 µM: Jurkat E6.1, 10 μM; for inhibition at 100 µM: Jurkat E6.1, 100 μM
Protocol: as §1

[8] = test system: A549 human lung cancer cells; experiment: CCK-8 proliferation inhibition, A549; type: cell-based; settings: CCK-8 method; for inhibition at 10 µM / inhibition at 100 µM: Homo sapiens, A549
Protocol: as §1

[9] = test system: Hut78 T-cell Leukemia cell; experiment: CCK-8 proliferation inhibition, Hut78; type: cell-based; settings: for inhibition at 10 µM / inhibition at 100 µM: Homo sapiens, read-out: Hut-78 (inhibition %); for inhibition at 10 µM: HuT78, 10 μM; for inhibition at 100 µM: HuT78, 100 μM
Protocol: as §1

[10] = test system: PC-3 human prostate cancer; experiment: CCK-8 proliferation inhibition, PC-3; type: cell-based; settings: CCK-8 method; for inhibition at 10 µM / inhibition at 100 µM: Homo sapiens
Protocol: as §1

SMILES | inhibition at 10 µM ([1]; compound concentration 10 μM) | inhibition at 100 µM ([1]; compound concentration 100 μM) | inhibition at 10 µM ([2]; compound concentration 10 μM) | inhibition at 100 µM ([2]; compound concentration 100 μM) | inhibition at 10 µM [3] | inhibition at 100 µM [3] | inhibition at 10 µM ([4]; compound concentration 10 μM) | inhibition at 100 µM ([4]; compound concentration 100 μM) | inhibition at 10 µM [6] | inhibition at 100 µM [6] | inhibition at 10 µM [7] | inhibition at 100 µM [7] | inhibition at 10 µM ([8]; compound concentration 10 μM) | inhibition at 100 µM ([8]; compound concentration 100 μM) | inhibition at 10 µM [9] | inhibition at 100 µM [9] | inhibition at 10 µM ([10]; compound concentration 10 μM) | inhibition at 100 µM ([10]; compound concentration 100 μM) | other results
Cc1ccc(COC(=O)NCc2ccc(C(=O)Nc3cccnc3N)cc2)cc1 [V-9, N-(2-amino-3-pyridyl)-4-[(4-methylbenzyloxyacyl)aminomethyl]benzamide] | 13% | 45.3% | -14.3% | 84.1% | 49.4% | 83.2% | 7.3% | 66.6% | 10.5% | 45.9% | 62.2% | 87.9% | -44.3% | -13.1% | 15% | 43.9% | 0% | 66.7% | Inhibition rate(%) ([5]; 3.91 μM): 2.8%; Inhibition rate(%) ([5]; 62.5 μM): 16.8%; Inhibition rate(%) ([5]; 2 mM): 36.7%
Nc1cnccc1NC(=O)c1ccc(CNC(=O)/C=C/c2cccnc2)cc1 [V-43] | 19.1% | 59.4% | 18.8% | 86.4% | 13.8% | 60.8% | 22.5% | 60.5% | 3.1% | 35.9% | 69.1% | 96.8% | 41.2% | 85.5% | 25.7% | 49.6% | 88% | 94.5% | 
Nc1ncccc1NC(=O)c1ccc(CNC(=O)OCc2ccc(F)cc2)cc1 [V-19, N-(2-amino-3-pyridyl)-4-[(4-fluorobenzyloxyacyl)aminomethyl]benzamide] | 0.9% | 34.3% | 27.5% | 89.1% | 25% | 65.1% | 21.5% | 69.8% | 26% | 36.8% | 19.1% | 77.8% | 18.3% | 57.1% | 19.8% | 54% | -1.9% | 48.5% | 
Nc1ncccc1NC(=O)c1ccc(CNC(=O)/C=C/c2ccc(F)cc2)cc1 [V-40, N-(2-amino-3-pyridyl)-4-[(4-fluorocinnamoyl)aminomethyl]benzamide] | 10% | 32.3% | 28.5% | 76.3% | 45% | 75% | -5% | 51.7% | 4.4% | 9.5% | 31.6% | 87.6% | 2.8% | 47.7% | 29.2% | 69.3% | 6.3% | 38.8% | 
COc1ccc(COC(=O)NCc2ccc(C(=O)Nc3ccncc3N)cc2)cc1 [V-12] | -1.8% | 86.4% | 14.2% | 94.5% | 56.9% | 94.5% | 5% | 90.4% | -1.8% | 34.9% | 36.4% | 96.3% | -5.9% | 38% | 17.5% | 83.6% | 29.7% | 89.3% | 
Cc1ccc(CCC(=O)NCc2ccc(C(=O)Nc3cccnc3N)cc2)cc1 [V-50, N-(2-amino-3-pyridyl)-4-[3-(4-methylphenyl)propionylaminomethyl]benzamide] | 6.8% | 27.4% | 14.7% | 36.9% | 23.8% | 75.7% | -0.5% | 23.5% | 10.2% | 12.9% | 8.9% | 75.9% | 8.6% | 14.2% | 0.4% | 46.9% | 5.5% | -3.8% | 
COc1cc(CCC(=O)NCc2ccc(C(=O)Nc3ccnc(N)c3)cc2)cc(OC)c1OC [V-55, N-(2-amino-4-pyridyl)-4-[3-(3,4,5-methoxyphenyl)propionylaminomethyl]benzamide] |  |  |  |  |  |  |  |  |  |  |  |  |  |  |  |  |  |  | Colo320 (inhibition %) ([1]; compound concentration 10 μM): −11.2%; Colo320 (inhibition %) ([1]; compound concentration 100 μM): −2.8%; 435s(inhibition %) ([2]; compound concentration 10 μM): 6.5%; 435s(inhibition %) ([2]; compound concentration 100 μM): 4.9%; K562 (inhibition %) ([3]; 10 μM): −12.8%; K562 (inhibition %) ([3]; 100 μM): −17.4%; Hep3B (inhibition %) ([4]; compound concentration 10 μM): 21.7%; Hep3B (inhibition %) ([4]; compound concentration 100 μM): 7.2%; PANC-1 (inhibition %) ([6]; 10 μM): −7.5%; PANC-1 (inhibition %) ([6]; 100 μM): −6.1%; Jurkat E6-1 (inhibition %) ([7]; 10 μM): 10.6%; Jurkat E6-1 (inhibition %) ([7]; 100 μM): 0.6%; A549 (inhibition %) ([8]; compound concentration 10 μM): −16.5%; A549 (inhibition %) ([8]; compound concentration 100 μM): −15.3%; Hut-78 (inhibition %) ([9]; 10 μM): −5.5%; Hut-78 (inhibition %) ([9]; 100 μM): −2.4%; PC-3 (inhibition %) ([10]; compound concentration 10 μM): 13.3%; PC-3 (inhibition %) ([10]; compound concentration 100 μM): 10.9%
Cc1ccc(CCC(=O)NCc2ccc(C(=O)Nc3ccncc3N)cc2)cc1 [V-51] | -5.7% | 7.9% | 14.1% | 31.3% | -2.4% | 53.5% | 24.9% | 26.9% | 1.4% | -6.1% | 14.8% | 42.4% | -8.9% | -3.2% | -0.5% | 35.2% | 21.4% | 45% | 
Nc1ncccc1NC(=O)c1ccc(CNC(=O)/C=C/c2ccccc2)cc1 [V-25, N-(2-amino-3-pyridyl)-4-(cinnamoylaminomethyl)benzamide] | 4.9% | 28.9% | 32.5% | 73.3% | 33.6% | 72.4% | 18.4% | 45.7% | 12% | 25.1% | 20.3% | 80.2% | 29.8% | 67.9% | 23.4% | 53.5% | 41.8% | 67.1% | 
Nc1ncccc1NC(=O)c1ccc(CNC(=O)OCc2ccc([N+](=O)[O-])cc2)cc1 [V-15, N-(2-amino-3-pyridyl)-4-[(4-nitrobenzyloxyacyl)aminomethyl]benzamide] | 2.6% | 4.1% | 30.6% | 42.4% | 20.4% | 32.3% | 22.3% | 43% | 24% | 21.1% | 18.6% | 26.3% | 15.3% | 12.9% | 28.5% | 24.6% | 21.9% | 18.8% | 
COc1ccc(/C=C/C(=O)NCc2ccc(C(=O)Nc3cccnc3N)cc2)cc1 [V-29, N-(2-amino-3-pyridyl)-4-[(4-methoxycinnamoyl)aminomethyl]benzamide] | 9.5% | 45.9% | 17% | 57.8% | 52.2% | 85.2% | 11% | 68.1% | 12.5% | 33.3% | 49.3% | 89.7% | 0% | 41.3% | 45.2% | 75.6% | 40.1% | 64.2% | 
